# Columns and labels:
# [1] = tested on: Kasumi-1 cells; test: Kasumi-1 cellular viability assay (ATP-Lite, 72 h); type: cell-based; conditions: Homo sapiens, ATP-Lite luminescence, % viability relative to DMSO
# Procedure, shortened: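 Kasumi-1 AML cells, 15000/well in RPMI-1640 with 10% FBS, were exposed to compound titrations (0.1% final DMSO) for 72 h at 37 °C, 5% CO2. ATP-Lite One Step luminescence gave % viability versus DMSO control, and IC50 came from the concentration-response.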
# [2] = biological target: T1, recombinant METTL3/METTL14 complex (Homo sapiens, UniProt Q86U44); test: METTL3/14 Scintillation Proximity Assay (SPA), RNA methyltransferase activity; type: biochemical; conditions: 5.31 nM METTL3/14 complex, 250 nM RNA substrate, 1 μM 3H-SAM, 90 min; for compounds marked * best of the two separated forms
# T1 construct: purchased Active Motif 311970; host or cells: Sf9 cells
# [3] = tested on: Caov-3 cells; test: Caov-3 cellular viability assay (ATP-Lite, 72 h); type: cell-based; conditions: Homo sapiens, ATP-Lite luminescence, % viability relative to DMSO
# Procedure, shortened: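 10000 cells/well treated 72 h at 37 °C, 5% CO2, in RPMI-1640 with 10% FBS and 0.1% DMSO final. Viability by ATP-Lite One Step luminescence. Expressed as % of DMSO control, with IC50 from each compound's concentration-response curve.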
# T1 sequence (Q86U44 whole entry): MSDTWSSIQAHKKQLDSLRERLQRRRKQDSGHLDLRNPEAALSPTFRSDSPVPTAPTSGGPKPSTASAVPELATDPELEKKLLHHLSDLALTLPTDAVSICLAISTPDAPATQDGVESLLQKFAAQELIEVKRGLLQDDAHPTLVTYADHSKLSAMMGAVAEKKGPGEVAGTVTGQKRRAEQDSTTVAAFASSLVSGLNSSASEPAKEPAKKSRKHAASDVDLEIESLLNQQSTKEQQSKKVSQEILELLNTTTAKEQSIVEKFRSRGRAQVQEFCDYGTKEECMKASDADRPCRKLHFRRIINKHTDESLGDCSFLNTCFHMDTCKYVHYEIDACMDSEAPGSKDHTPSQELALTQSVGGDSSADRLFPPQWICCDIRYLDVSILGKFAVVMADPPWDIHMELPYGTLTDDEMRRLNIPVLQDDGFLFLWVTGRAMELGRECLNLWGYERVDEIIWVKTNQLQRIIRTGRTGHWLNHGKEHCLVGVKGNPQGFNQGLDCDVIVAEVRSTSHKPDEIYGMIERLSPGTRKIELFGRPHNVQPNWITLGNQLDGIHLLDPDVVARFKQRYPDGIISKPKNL
# T1 sequence (Q9HCE5 whole entry partner): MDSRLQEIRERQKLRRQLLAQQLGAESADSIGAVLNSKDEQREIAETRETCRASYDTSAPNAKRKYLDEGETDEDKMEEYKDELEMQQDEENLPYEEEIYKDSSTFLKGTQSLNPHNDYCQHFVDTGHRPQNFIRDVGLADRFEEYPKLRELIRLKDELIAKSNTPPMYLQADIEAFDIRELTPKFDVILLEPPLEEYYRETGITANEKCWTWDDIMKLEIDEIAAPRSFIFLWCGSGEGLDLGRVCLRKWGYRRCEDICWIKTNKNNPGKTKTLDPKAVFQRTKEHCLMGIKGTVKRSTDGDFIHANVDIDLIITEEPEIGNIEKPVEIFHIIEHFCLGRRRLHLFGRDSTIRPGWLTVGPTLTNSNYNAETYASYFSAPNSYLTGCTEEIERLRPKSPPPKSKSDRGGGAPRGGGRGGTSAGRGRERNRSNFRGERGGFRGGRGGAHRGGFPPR
SMILES,IC50 [1],IC50 [2],IC50 [3]
"O=C(Nc1cc(=O)n2ccccc2n1)C1(c2ccc(N3CCC[C@@H](NCC4(C(F)(F)F)CC4)C3)cn2)COC1 [Compound 328, (R)-N-(4-oxo-4H-pyrido[1,2-a]pyrimidin-2-yl)-3-(5-(3-(((1-(trifluoromethyl)cyclopropyl)methyl)amino)piperidin-1-yl)pyridin-2-yl)oxetane-3-carboxamide]",500 to 5000 nM,≤ 50 nM,≤ 500 nM
"COc1cnnc(-c2cn(C(C)n3ccc(N4CCC[C@@H](NCC5CCC5)C4)cc3=O)nn2)c1 (mixture of isomers) [Compound 093, 4-((R)-3-((cyclobutylmethyl)amino)piperidin-1-yl)-1-(1-(4-(5-methoxypyridazin-3-yl)-1H-1,2,3-triazol-1-yl)ethyl)pyridin-2(1H)-one]",500 to 5000 nM,≤ 50 nM,500 to 5000 nM
"O=C(Nc1cncc(N2CCCC2)n1)C1(c2ccc(N3CCC[C@@H](NCC4CC4)C3)nc2)COC1 [Compound 324, (R)-3-(6-(3-((cyclopropylmethyl)amino)piperidin-1-yl)pyridin-3-yl)-N-(6-(pyrrolidin-1-yl)pyrazin-2-yl)oxetane-3-carboxamide]",≤ 500 nM,≤ 50 nM,≤ 500 nM
"COc1cc(-c2cn(Cc3ccc(N4CCCC(N5CCC6(CCC6)C5)C4)nn3)nn2)c2cn[nH]c2c1 (stereo not drawn) [Compound 008, 4-(1-((6-(3-(6-azaspiro[3.4]octan-6-yl)piperidin-1-yl)pyridazin-3-yl)methyl)-1H-1,2,3-triazol-4-yl)-6-methoxy-1H-indazole]",> 5000 nM,≤ 50 nM,500 to 5000 nM
"COc1cncc(-c2cn(C(C)c3ccc(N4CCC[C@@H](NCC5CCC5)C4)nn3)cn2)c1 (stereo partly drawn) [Compound 182, (3R)—N-(cyclobutylmethyl)-1-(6-(1-(4-(5-methoxypyridin-3-yl)-1H-imidazol-1-yl)ethyl)pyridazin-3-yl)piperidin-3-amine]",500 to 5000 nM,≤ 50 nM,≤ 500 nM
"O=C(Nc1cncc(C2CCCC2)n1)C1(c2ccc(N3CCC[C@@H](NCC4CCC4)C3)cn2)COC1 [Compound 268, (R)-3-(5-(3-((cyclobutylmethyl)amino)piperidin-1-yl)pyridin-2-yl)-N-(6-cyclopentylpyrazin-2-yl)oxetane-3-carboxamide]",500 to 5000 nM,≤ 50 nM,500 to 5000 nM
"CC(n1cc(-c2cncc(N3CCCC3=O)c2)nn1)n1ccc(N2CCC[C@@H](NCC3CCC3)C2)cc1=O (single isomer, unassigned) [Compound 159]",500 to 5000 nM,≤ 50 nM,500 to 5000 nM
"c1nnc(-c2cn(C3(c4ccc(N5CCC[C@@H](NCC6CC6)C5)cn4)COC3)nn2)cc1C1CC1 [Compound 343, (R)-N-(cyclopropylmethyl)-1-(6-(3-(4-(5-cyclopropylpyridazin-3-yl)-1H-1,2,3-triazol-1-yl)oxetan-3-yl)pyridin-3-yl)piperdin-3-amine]",500 to 5000 nM,≤ 50 nM,≤ 500 nM
"CC(n1cc(-c2cncc(N(C)C)n2)nn1)n1ccc(N2CCC[C@@H](NCC3CCC3)C2)cc1=O (stereo partly drawn) [Compound 164, 4-((R)-3-((cyclobutylmethyl)amino)piperidin-1-yl)-1-(1-(4-(6-(dimethylamino)pyrazin-2-yl)-1H-1,2,3-triazol-1-yl)ethyl)pyridin-2(1H)-one]",≤ 500 nM,≤ 50 nM,≤ 500 nM
"CC(c1ccc(N2CCC[C@@H](NCC3CC3)C2)cn1)n1cnc(-c2cncc(N3CCCC3)n2)c1 (single isomer, unassigned) [Compound 355]",≤ 500 nM,≤ 50 nM,≤ 500 nM
"c1ncc(N2CCCC2)cc1-c1cn(C2(c3ccc(N4CCC[C@@H](NCC5CC5)C4)cn3)COC2)nn1 [Compound 194, (R)-N-(cyclopropylmethyl)-1-(6-(3-(4-(5-(pyrrolidin-1-yl)pyridin-3-yl)-1H-1,2,3-triazol-1-yl)oxetan-3-yl)pyridin-3-yl)piperidin-3-amine]",≤ 500 nM,≤ 50 nM,≤ 500 nM
CCN(C)c1cncc(-c2cn(C(C)n3ccc(N4CCC[C@@H](NCC5CC5)C4)cc3=O)nn2)c1 (stereo partly drawn) [Compound 203],≤ 500 nM,≤ 50 nM,≤ 500 nM
"COc1cncc(-c2cn(Cc3ccc(N4C[C@@H](F)C[C@@H](NCC5CCC5)C4)nn3)nn2)c1 [Compound 056, (3R,5S)-N-(cyclobutylmethyl)-5-fluoro-1-(6-((4-(5-methoxypyridin-3-yl)-1H-1,2,3-triazol-1-yl)methyl)pyridazin-3-yl)piperidin-3-amine]",> 5000 nM,≤ 50 nM,> 5000 nM
"c1cc(C2(n3cc(-c4cncc(N5CCCC5)n4)nn3)COC2)ncc1N1CCCC(NCC2CCC2)C1 (stereo in doubt) [Compound 290, (R)-N-(cyclobutylmethyl)-1-(6-(3-(4-(6-(pyrrolidin-1-yl)pyrazin-2-yl)-1H-1,2,3-triazol-1-yl)oxetan-3-yl)pyridin-3-yl)piperidin-3-amine]",≤ 500 nM,≤ 50 nM,≤ 500 nM
"CC(n1cc(-c2cncc(N3CCCC3)n2)nn1)n1ccc(N2CCC[C@@H](NCC3CC3)C2)cc1=O (single isomer, unassigned) [Compound 180]",≤ 500 nM,≤ 50 nM,≤ 500 nM
"O=c1cc(-c2cn(Cc3ccc(N4CCC[C@@H](NCC5CCC5)C4)nn3)nn2)nc2ccccn12 [Compound 017, (R)-2-(1-((6-(3-((cyclobutylmethyl)amino)piperidin-1-yl)pyridazin-3-yl)methyl)-1H-1,2,3-triazol-4-yl)-4H-pyrido[1,2-a]pyrimidin-4-one]",> 5000 nM,≤ 50 nM,> 5000 nM
"CC(n1cc(-c2cncc(N3CCC4(CC4)C3)n2)nn1)n1ccc(N2CCC[C@@H](NCC3CC3)C2)cc1=O (stereo partly drawn) [Compound 235, 1-(1-(4-(6-(5-azaspiro[2.4]heptan-5-yl)pyrazin-2-yl)-1H-1,2,3-triazol-1-yl)ethyl)-4-((R)-3-((cyclopropylmethyl)amino)piperidin-1-yl)pyridin-2(1H)-one]",≤ 500 nM,≤ 50 nM,≤ 500 nM
"COc1cncc(-c2cc(Cn3ccc(N4CCC[C@@H](NCC5CCC5)C4)cc3=O)n[nH]2)c1 [Compound 095, (R)-4-(3-((cyclobutylmethyl)amino)piperidin-1-yl)-1-((5-(5-methoxypyridin-3-yl)-1H-pyrazol-3-yl)methyl)pyridin-2(1H)-one]",500 to 5000 nM,≤ 50 nM,≤ 500 nM
"CC1(C)CCN(c2cncc(-c3cn(C4(c5ccc(N6CCC[C@@H](NCC7CC7)C6)cn5)COC4)nn3)n2)C1 [Compound 214, (R)-N-(cyclopropylmethyl)-1-(6-(3-(4-(6-(3,3-dimethylpyrrolidin-1-yl)pyrazin-2-yl)-1H-1,2,3-triazol-1-yl)oxetan-3-yl)pyridin-3-yl)piperidin-3-amine]",≤ 500 nM,≤ 50 nM,≤ 500 nM
"COc1cc(-c2cn(Cc3ccc(N4CCC[C@@H](NCC5CC5)C4)nn3)nn2)c2cn[nH]c2c1 [Compound 015, (R)-N-(cyclopropylmethyl)-1-(6-((4-(6-methoxy-1H-indazol-4-yl)-1H-1,2,3-triazol-1-yl)methyl)pyridazin-3-yl)piperidin-3-amine]",500 to 5000 nM,≤ 50 nM,≤ 500 nM
CN(C)c1cncc(-c2cn(Cc3ccc(N4CCC[C@@H](NCC5CCC5)C4)cc3)nn2)c1 [Compound 140],≤ 500 nM,≤ 50 nM,≤ 500 nM
"FC1(CN[C@@H]2CCCN(c3ccc(C4(n5cc(-c6cncc(C7CC7)c6)nn5)COC4)nc3)C2)CC1 [Compound 332, (R)-1-(6-(3-(4-(5-cyclopropylpyridin-3-yl)-1H-1,2,3-triazol-1-yl)oxetan-3-yl)pyridin-3-yl)-N-((1-fluorocyclopropyl)methyl)piperidin-3-amine]",≤ 500 nM,≤ 50 nM,≤ 500 nM
"c1cc(C2(n3cc(-c4cncc(N5CCCC5)n4)nn3)COC2)ncc1N1CCC[C@@H](NCC2CC2)C1 [Compound 185, (R)-N-(cyclopropylmethyl)-1-(6-(3-(4-(6-(pyrrolidin-1-yl)pyrazin-2-yl)-1H-1,2,3-triazol-1-yl)oxetan-3-yl)pyridin-3-yl)piperidin-3-amine]",≤ 500 nM,≤ 50 nM,≤ 500 nM
"c1cc(Cc2nnc(-c3cncc(N4CCCC4)n3)s2)ncc1N1CCC[C@@H](NCC2CC2)C1 [Compound 361, (R)-N-(cyclopropylmethyl)-1-(6-((5-(6-(pyrrolidin-1-yl)pyrazin-2-yl)-1,3,4-thiadiazol-2-yl)methyl)pyridin-3-yl)piperidin-3-amine]",≤ 500 nM,≤ 50 nM,≤ 500 nM
"FC1(F)CCN(c2cncc(-c3cn(C4(c5ccc(N6CCC[C@@H](NCC7CC7)C6)cn5)COC4)nn3)n2)C1 [Compound 215, (R)-N-(cyclopropylmethyl)-1-(6-(3-(4-(6-(3,3-difluoropyrrolidin-1-yl)pyrazin-2-yl)-1H-1,2,3-triazol-1-yl)oxetan-3-yl)pyridin-3-V)piperidin-3-amine]",≤ 500 nM,≤ 50 nM,≤ 500 nM
"CC(n1cc(-c2cncc(N3CCN(C)C3=O)c2)nn1)n1ccc(N2CCC[C@@H](NCC3CCC3)C2)cc1=O (single isomer, unassigned) [Compound 153]",> 5000 nM,≤ 50 nM,> 5000 nM

# — patent US20250002475A1 (EPICS THERAPEUTICS, priority 2023, published 2025)
